According to patent US20070243201A1, “Method for Selecting Epitopes for Immunotherapy” (Igeneon Krebs-Immuntherapie Forschungs-und entwicklungs-AG, priority 2003, published 2007):

tested on: immune serum; experiment: Ep-CAM epitope mapping by solid phase peptide (spot) synthesis: binding of biotinylated serum IgG to immobilized decapeptides; conditions: immune serum of a patient after active immunotherapy with mAb17-1A (EpCAM antibody), taken 71 days after immunization; compared with pre-serum of day 1, which does not show this binding or shows it to a slight degree only; FIG. 1
Procedure: Protein G Sepharose Fast Flow (Amersham Biosciences) was packed into an HR 5 column (inner diameter 5 mm; Amersham Biosciences). The column was equilibrated with 5 column volumes of PBS buffer at a flow rate of 0.33 ml/min. Subsequently, serum was loaded at the same flow rate, followed by washing with further 5 column volumes. Elution was carried out with 0.2 M acetic acid +20% ethylene glycol, pH 2.7. The eluate was taken up in 1 M sodium bicarbonate buffer and thus brought to pH 8.6.
One aliquot of the purified serum was incubated with NHS-LC biotin for 1 h at room temperature. Subsequently, the sample was re-buffered via a Sephadex G25 gel filtration column (PD-10, Amersham Biosciences) so as to separate the biotinylated […] from free […], on the one hand, and to further transfer it into a medium suitable for the test system.
The spot synthesis was carried out by means of a modified method according to Frank (Tetrahedron 48 (1992) 9217-9232). Whatman 540 cellulose was dried over night in the desiccator. The membrane was then functionalized for 3 h with 0.2 M Fmoc-β alanine, 0.24 M diisopropyl carbodiimide and 0.4 M 1-methyl-imidazole. After washing with 3× dimethylformamide (DMF), the Fmoc group was cleaved off by treatment with 20% piperidine in DMF. The peptides were synthesized by means of the AutoSpot Robot ASP222 (INTAVIS, Germany). As the first amino acid, always a further β-alanine spacer was introduced. After the first β-alanine coupling, the remaining free amino groups were acetylated with 2% acetic anhydride. As the amino acids, Fmoc-protected Opfp esters of the amino acids (O-pentafluorophenyl, Novabiochem), dissolved in N-methyl pyrrolidone at a concentration of 0.3 M were used. Each amino acid was spotted twice per cycle. After each cycle, the Fmoc group was cleaved off with piperidine, as described above, and then the membrane was washed 6× with DMF. After the synthesis of the last amino acid, it was again acetylated, and then the side protection groups were cleaved off. At first, the membrane was treated with 90% trifluoroacetic acid, 3% triisobutyl silane, 1% phenol, 2% water and 4% dichloromethane for 30 minutes. Subsequently, the membrane was washed 5× with DCM, 3× with DMF and methanol and dried. This was followed by a further cleavage by treatment with 50% trifluoroacetic acid, 3% triisobutyl silane, 1% phenol, 2% water and 44% dichloromethane for two hours. […]
Since the major immune response is provided in the form of IgG, IgG was purified from the sera via protein G Sepharose. […] The concentration of the biotinylated IgG was determined via photometric absorption measurement at 280 nm, and after the addition of 0.2% sodium azide the material was stored at 4° C. […]

| Sequence | binding of immune serum to the 10 mer peptides |
| --- | --- |
| ALQKEITTRY [compound 42] | increasingly binds |
| DPKFITSILY [compound 45] | increasingly binds |
| DLDPGQTLIY [compound 61] | increasingly binds |
| IADVAYYFEK [compound 53] | increasingly binds |
